In brackets after ≈: the same amount, converted by molar mass.
Experiments:
293 cells = assay: Two-photon microscopy of probe-labeled 293 cells; type: cell-based; settings: for TPEF of labeled cells collected at 360-460 nm / TPEF of labeled cells collected at 500-620 nm: 2 μM probe, excitation 780 nm
Experimental: 293 cells were incubated in DMEM (WelGene) supplemented with 10% FBS (WelGene), penicillin (100 unit/ml) and streptomycin (100 μg/ml).
Two days before imaging, the cells were transferred to glass-bottomed dishes (MatTek) and plated thereon. For labeling, the growth medium was replaced with FBS-free DMEM. The cells were incubated under 5% CO2, 37° C., using a 2 μM sensor for 30 minutes, washed three times with phosphate-buffered saline (PBS; Gibco), and further incubated in a colorless serum-free medium. Meanwhile, primary cortical cultures were taken from cerebral cortices of 1-day-old rats (Sprague-Dawley (SD)). The cerebral cortices were dissociated in Hank's balanced salt solution (HBSS; Gibco BRL, Gaithersburg, Md., USA) containing 1 U/ml papain (Worthington Biochemical Corporation, NJ, USA), plated at a density of 100 to 200 cells/mm^2 on poly-D-lysine and laminin-coated glass cover slips, and maintained in Neurobasal media (Gibco) supplemented with 2% B-27 (Gibco) and penicillin/streptomycin in a CO2 incubator at 37° C. After […] 7-15 days, the cortical cultures were washed three times with PBS and incubated in the presence of AZn2 (2 μM) in PBS at 37° C. for 30 minutes.
Two-photon fluorescence microscopy images of cells and tissue labeled with AZn2 were obtained with spectral confocal and multiphoton microscopes (Leica TCS SP2) with a ×100 oil objective and numerical aperture (NA)=1.30. The two-photon fluorescence microscopy images were obtained by exciting the two-photon probe with a mode-locked titanium-sapphire laser source (Coherent Chameleon, 90 MHz, 200 fs) set at wavelength of 780 nm and an output power of 1,230 mW, which corresponded to approximately 10 mW average power in the focal plane. To obtain images at 360-460 nm and 500-620 nm range, internal PMTs were used to collect the signals in an 8 bit unsigned 512×512 pixels at 400 Hz scan speed.
Moreover, because the fluorescence intensities of the two-photon probes increase slightly at pH<4 (FIGS. 8a and 8b), there is a possibility that the probes in the acidic vesicles might partially contribute to the TPM images. To rule out such possibility, 293 cells and primary cortical cultures were co-stained with AZn2 and LysoTracker Red (LTR), a well known one-photon fluorescent probe for the acidic vesicles, and the images were co-localized.
More specifically, (a) and (f) are bright field images, (b) and (g) are pseudo colored images of the AZn2-labeled 293 cells collected at 360-460 nm, (c) and (h) are pseudo colored images of the AZn2-labeled 293 cells collected at 500-580 nm, (d) and (i) are OPM images of the LTR-labeled 293 cells collected at 600-650 nm, and (e) and (j) are co-localized images. The one-photon and two-photon excitations were performed at 543 nm and 780 nm, respectively, the scale bar is 30 μm, and the images shown are representative images from replicate experiments (n=5).
FIG. 13 is images of AZn1- and LTR (2 μM for each)-labeled 293 cells: (a)-(e) and (f)-(j) are images of the labeled cells before and after addition of 100 μM TPEN to the imaging solution, respectively. More specifically, (a) and (f) are bright field images; (b) and (g) are pseudo colored images of the AZn1-labeled 293 cells collected at 360-460 nm; (c) and (h) are pseudo colored images of the AZn1-labeled 293 cells collected at 500-580 nm; (d) and (i) are OPM images of the LTR-labeled 293 cells collected at 600-650 nm; and (e) and (j) are co-localized images. […]

[1] = One-photon fluorescence intensity as a function of pH; type: physicochemical; settings: biologically relevant pH; 1 μM probe, 30 mM MOPS, 100 mM KCl
Experimental: FIGS. 8a and 8b show the one-photon fluorescence intensities of AZn1 and AZn2 (1 μM for each), respectively, as a function of pH when free Zn^2+ were absent (∘) and present at a concentration of 1 μM (▪) in mixed solutions of 30 mM MOPS and 100 mM KCl.

[2] = Fluorescence quantum yield (Coumarin 307 as reference); type: physicochemical
Experimental: The absorption spectra of the two-photon probes were recorded on a Hewlett-Packard 8453 diode array spectrophotometer, and the fluorescence spectra of the two-photon probes were obtained with an Amico-Bowman series 2 luminescence spectrometer with a 1 cm standard quartz cell. The fluorescence quantum yields of the two-photon probes were determined by using Coumarin 307 as the reference by the literature method (J. N. Demas, G. A. Crosby, J. Phys. Chem. 1971, 75, 991-1024.). FIGS. 2a and 2b are one-photon absorption and emission spectra of the two-photon probe AZn1, respectively, and FIGS. 2c and 2d are one-photon absorption and emission spectra of the two-photon probe AZn2, respectively.

[3] = Measurement of water solubility; type: physicochemical; settings: kinetic from dmso stock, H2O, 0.2% DMSO, maximum concentration in the linear region of fluorescence intensity vs probe concentration
Experimental: A small amount of each of the two-photon probes (AZn2 and AZn1) prepared in Examples 1 and 2 was dissolved in DMSO to prepare a stock solution ([…]). The solution was diluted to 6.0×10^−3˜6.0×10^−5 M and added to a cuvette containing 3.0 mL of H2O by using a micro syringe. In all cases, the concentration of DMSO in H2O was maintained to be 0.2%.
FIGS. 1a through 1d are plots showing variations in the fluorescence intensity of the two-photon probes at different concentrations.
The plots of FIGS. 1b and 1d show variations in the fluorescence intensity of AZn2 and AZn1 as a function of the probe concentration, respectively, and have a profile in which the fluorescence intensity increases linearly at low concentrations. […] The maximum concentration in the linear region was taken as the water solubility. The water solubilities of the two probes were all 3.0 μM.

[4] = 20 mM MOPS, 100 mM KCl, 10 mM EGTA, pH 7.2, absence of Zn2+, ±10%
[5] = 20 mM MOPS, 100 mM KCl, 10 mM EGTA, pH 7.2, presence of Zn2+, ±10%

Nc1ccc(NCCN(Cc2ccccn2)Cc2ccccn2)cc1 [AZn1]
TPEF of labeled cells collected at 360-460 nm (293 cells): no TPEF
TPEF of labeled cells collected at 500-620 nm (293 cells): appreciable TPEF
pH sensitivity of fluorescence [1]: pH insensitivity
fluorescence quantum yield φ [2, 4]: 0.022
fluorescence quantum yield φ [2, 5]: 0.47
fluorescence quantum yield φ ([2]; 1,4-dioxane, ±15%): 0.19
fluorescence quantum yield φ ([2]; DMF, ±15%): 0.055
fluorescence quantum yield φ ([2]; Ethanol, ±15%): 0.057
fluorescence quantum yield φ ([2]; H2O, ±15%): 0.022
solubility [3]: 3 µM (≈ 1 µg/mL)

COc1cc(NC(=O)CN(C)c2ccc3cc(C(C)=O)ccc3c2)ccc1NCCN(Cc1ccccn1)Cc1ccccn1 [AZn2]
intracellular location of probe (293 cells): predominantly located in the cytosolic compartments
TPEF of labeled cells collected at 360-460 nm (293 cells): no TPEF
TPEF of labeled cells collected at 500-620 nm (293 cells): appreciable TPEF
pH sensitivity of fluorescence [1]: pH insensitivity
fluorescence quantum yield φ [2, 4]: 0.012
fluorescence quantum yield φ [2, 5]: 0.65
fluorescence quantum yield φ ([2]; 1,4-dioxane, ±15%): 0.094
fluorescence quantum yield φ ([2]; DMF, ±15%): 0.037
fluorescence quantum yield φ ([2]; Ethanol, ±15%): 0.039
fluorescence quantum yield φ ([2]; H2O, ±15%): 0.012
solubility [3]: 3 µM (≈ 1.81 µg/mL)

Source: patent US8129137B2, “Two-photon probe for real-time monitoring of intracellular free zinc ions, method for preparing the probe and method for real-time monitoring of intracellular free zinc ions using the probe” (Korea University Industrial & Academic Collaboration …, priority 2008, dated 2012)
